Source: patent publication US10583102B2, “Targeting liver nuclear receptors as a treatment for wilson disease” (THE JOHNS HOPKINS UNIVERSITY, priority 2014, dated 2020)
Entries after “also recorded” stand apart in the source; their conditions may differ.

Tests used:
[1] = Animal and liver weights during/after T0901317 treatment in chow; format: in vivo, mice; settings: for body weight: 50 mg/kg/day thrice weekly in chow, 8 weeks
Experimental: (§1) ATP7b knockout (ATP7b^−/−) and heterozygote (ATP7b^+/−) mice were generated as previously prescribed (Buiakova et al., 8(9) HUM. MOL. GENETICS 1665-71 (1999). T0901317 (Cayman Chemical, Ann Arbor, Mich.) powder was mixed with Teklad 2018 powdered chow (Harlan, Madison Wis.) and fed to animals aged 6-7 weeks old at a dose of 50 mg/kg/day, thrice weekly. After 8 weeks, animals were sacrificed. The animals were housed at the Johns Hopkins University School of Medicine (JHUSOM) Animal Care Facility and protocols designed according to National Institutes of Health (USA) guidelines. Normal pellet chow was fed to the mice on days they were not receiving the drug. Animals were weighed weekly. At the time of sacrifice, trunk blood and livers were harvested. The Institutional Animal Care and Use Committee (IACUC) of JHUSOM approved the above experimental protocols.

[2] = tested on: Atp7b−/− mice; assay: Hepatic copper measurement by atomic absorption spectroscopy; format: in vivo; settings: drug-treated Atp7b−/− mice, end of experiment
Experimental: as §1, with “protocols. Hepatic copper levels were measured by polarized atomic absorption spectroscopy as previously described. Briefly, 50-100 mg of liver was dissolved in 2 ml of HNO3 at 90° C. Copper levels were determined using a Hitachi Z-8279 spectrophotometer. Samples were compared to freshly prepared standards.” for “protocols.”

[3] = tested on: LXR/RXR signaling pathway; assay: Quantitative RT-PCR of liver mRNA, genes under control of LXR/RXR signaling pathway; format: in vivo, mice; settings: for SREBP1 mRNA / FASN mRNA expression: treated vs untreated
Experimental: as §1
(§2) Sections of mouse liver were immersed in RNAlater, homogenized, and frozen at −80° C. RNA was isolated with TRIzol via the manufacturer's instructions, then transcribed into cDNA using the SuperScript III first strand synthesis system (Invitrogen). RNA quantity was determined by an ND-1000 spectrophotometer (NanoDrop, Wilmington, Del.). Samples were run in triplicate and performed on a 7900 HT machine (Applied Biosystems) and analyzed with the SDS 2.4.1 software. GAPDH served as the control to which gene of interest expression was normalized.
(§3) Quantitative RT-PCR for ABC1, HmGCoA1, CYP71a, FASN, LXRα (NR1H3), LXRβ (NR1H2), RXRα (NR2B2), SREBP1, FXR, TIMP1, COL1a, and GAPDHwas performed with sequence-specific primers and probes using TaqMan gene expression assays (Applied Biosystems, Foster City, Calif.).

[4] = tested on: Atp7b−/− mice; assay: Hepatic triglyceride colorimetric assay; format: in vivo
Experimental: as §1, with “protocols. The triglyceride colorimetric assay kit (Cayman Chemical, Ann Arbor, Mich.) was used for measuring hepatic triglyceride content using the provided protocol. 120-160 mg of liver tissue was homogenized and samples were assayed in triplicate. Absorbance at 540 nm was detected on an Envision plate reader (Perkin-Elmer). Triglyceride concentrations were calculated using a standard curve, then normalized to the volume of homogenate and the mass of the liver tissue.” for “protocols.”

[5] = tested on: Atp7b−/− mice; assay: Serum lipid panel; format: in vivo; settings: drug treated Atp7b−/− mice vs untreated Atp7b−/−
Experimental: as §1, with “protocols. Animals were fasted overnight before sacrifice. Whole blood was collected from the aorta and vena cava in amber Microtainer tubes (Becton Dickinson, Franklin Lakes, N.J.), and serum was separated after centrifugation at 5000 rpm for 10 minutes. Liver biochemistries and lipid panels were performed in the Molecular and Comparative Pathobiology Core Laboratory of JHUSOM.” for “protocols.”

[6] = tested on: Atp7b−/− mice; assay: Quantitative RT-PCR of liver mRNA, inflammatory and fibrosis genes; format: in vivo
Experimental: as §1, §2, §3

[7] = tested on: Atp7b−/− mice; assay: Serum liver biochemistries (AST, ALT, bilirubin, albumin); format: in vivo; settings: treated Atp7b−/− mice; p<0.05 vs untreated
Experimental: as §1, with “protocols. Animals were fasted overnight before sacrifice. Whole blood was collected from the aorta and vena cava in amber Microtainer tubes (Becton Dickinson, Franklin Lakes, N.J.), and serum was separated after centrifugation at 5000 rpm for 10 minutes. Liver biochemistries and lipid panels were performed in the Molecular and Comparative Pathobiology Core Laboratory of JHUSOM.” for “protocols.”

[8] = tested on: Atp7b−/− mice; assay: Liver histology (H&E, inflammation scoring); format: in vivo
Experimental: as §1, with “protocols. Sections of mouse liver were covered in OCT and snap frozen in liquid nitrogen. Sections were then cut and stained with hematoxylin and eosin. De-identified samples were analyzed for the presence of inflammation by an expert in veterinary pathology (D.H.). Inflammation was scored as follows: none, 0; mild, 1; moderate, 2; and severe, 3. Severely inflamed livers had karyomegaly, cytomegaly, binucleate hepatocytes, intranuclear vacuoles, multiple nuclei, and inflammatory cell infiltrates.” for “protocols.”

[9] = tested on: Atp7b−/− mice; assay: Hepatic oxysterol measurement by LC/MS; format: in vivo; settings: Atp7b knockout mice, data not shown
Experimental: as §1, with “protocols. Oxysterols were extracted and measured using the protocol described by McDonald et al. (53(7) J. LIPID RES. 1399-1409 (2012)). […] Quantitation was performed by establishing a linear relationship between measured amounts of the analytical standards combined with the internal standard cocktail. This regression line was applied to the measured peak areas for analytes in the extracted samples to determine measured quantities present in each sample. […]” for “protocols.”

[10] = Atp7b−/− mice, treated vs untreated

## O=S(=O)(c1ccccc1)N(CC(F)(F)F)c1ccc(C(O)(C(F)(F)F)C(F)(F)F)cc1 [T0901317, N-(2,2,2-trifluoroethyl)-N-{4-[2,2,2-trifluoro-1-hydroxy-1-(trifluorometh-yl)ethyl]phenyl}benzene sulfonamide]
[1]; KO (Atp7b−/−) mice, end of treatment
  liver weight, treated vs untreated: neither a difference
[1]; drug-treated HET (Atp7b+/−) mice, p<0.05 vs untreated
  body weight: 26.43 ± 1.35 g
[1]; drug-treated KO (Atp7b−/−) mice
  body weight: 24.03 ± 0.91 g
[2]
  hepatic copper levels: did not prevent copper accumulation
[3]; ATP7b+/− mice
  SREBP1 mRNA: increased
[3]; ATP7b−/− mice
  SREBP1 mRNA: no change
[3]; Atp7b+/− mice
  FASN mRNA expression: significantly increased
[3]; Atp7b−/− mice
  FASN mRNA expression: significantly increased
[3]; both KO and HET mice
  ABC1 mRNA levels: did not change
  CYP7A1 mRNA levels: did not change
  HMGCS1 mRNA levels: did not change
  NR1H2 mRNA levels: did not change
  NR1H3 mRNA levels: did not change
  NR1H4 mRNA levels: did not change
[4]; drug treated HET mice vs untreated HET
  hepatic triglycerides: statistically significant increase
[4]; drug treated KO mice vs untreated KO
  hepatic triglycerides: statistically significant increase
[5]; p<0.001
  serum low density lipoprotein (LDL): significantly increased; also recorded: more than doubled
  serum total cholesterol: significantly increased; also recorded: more than doubled
[5]; p<0.005
  serum high density lipoprotein (HDL): significantly increased; also recorded: more than doubled
[6]; Atp7b−/− mice
  increase in expression of collagen (Col1a mRNA): completely abolished
[6]; [10]
  IL-1β expression: significantly reduced
  TNFα expression: significantly reduced
  iNOs expression: significantly reduced
[6]; heterozygote animals
  expression of inflammatory genes (TNFα, IL-1β, iNOs): no effect
[7]
  serum ALT (mean): 285±115 U/L
  serum AST (mean): 222±64 U/L
  serum albumin: 2.93 ± 0.19 g/dL
  serum total bilirubin: 0.85 ± 0.22 mg/dL
[8]; heterozygote mice
  effect on liver histology: no effect
[8]; treated KO mice, light microscopy
  treated mice in which pathologic liver histology features disappeared: 5/7
[9]
  changes in hepatic oxysterol levels: did not reverse
